# Entries after “also recorded” stand apart in the source; their conditions may differ. Where two headings read alike, the source gives them in different places.
# How the values were obtained:
# [1] = biological target: DiaaNaC (diarylamidine-activated Na+ channel) (Novocrania anomala, UniProt A0AAU8BSW0); test: Two-electrode voltage clamp of Xenopus laevis oocytes expressing WT DiaaNaC; format: cell-based; conditions: for inward currents in absence of extracellular Na+: 1 mM compound, 140 KCl instead of NaCl; for activation of DiaaNaC (agonist activity): compound at 1 mM; for reversal potential (Erev) of pentamidine-gated current: n = 5
# Chain of DiaaNaC (diarylamidine-activated Na+ channel) (A0AAU8BSW0 entry or part of it): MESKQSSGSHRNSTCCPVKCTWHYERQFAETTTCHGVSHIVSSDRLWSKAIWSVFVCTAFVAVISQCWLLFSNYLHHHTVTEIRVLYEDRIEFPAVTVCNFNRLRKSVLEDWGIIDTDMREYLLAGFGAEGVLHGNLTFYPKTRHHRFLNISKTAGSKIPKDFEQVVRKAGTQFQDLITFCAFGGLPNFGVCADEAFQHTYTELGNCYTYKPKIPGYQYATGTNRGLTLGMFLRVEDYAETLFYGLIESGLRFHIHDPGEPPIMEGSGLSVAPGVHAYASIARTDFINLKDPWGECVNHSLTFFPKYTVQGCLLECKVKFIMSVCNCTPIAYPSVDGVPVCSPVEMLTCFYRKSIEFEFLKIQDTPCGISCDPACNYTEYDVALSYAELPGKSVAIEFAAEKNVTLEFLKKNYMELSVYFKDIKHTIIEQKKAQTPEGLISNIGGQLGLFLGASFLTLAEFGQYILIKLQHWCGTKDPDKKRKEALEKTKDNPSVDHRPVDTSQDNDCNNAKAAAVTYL
# Method: (§1) Before electrophysiological recordings or surface expression determination, the oocytes were cultured for 3 days at 18 °C in 50% Leibowitz medium (L1518, Merck), supplemented with 0.25 mg/ml gentamicin, 1 mM L-glutamine, and 15 mM Hepes (pH 7.6). For surface expression detection, mouse anti-Myc tag monoclonal IgG1 antibody (MA121316, Fisher Scientific) was used to detect the myc tag attached to the 3′-end of all the constructs used in this work, and the protocol previously used in our lab was followed ([47]) using a Zeiss Axio Scope A1 microscope. The intensity of the expression signal was quantified by tracing a perpendicular line across the oocyte membrane and measuring the gray values with ImageJ software ([48]).
# Whole cell currents were recorded from oocytes by two-electrode voltage clamp using an OC-725D amplifier (Warner Instruments) controlled via an Axon Digitata 1550B interface and pClamp v11 (Molecular Devices), acquired at 1 kHz, and filtered at 200 Hz. Currents were analyzed in pClamp v10.7 software (Molecular Devices) and additionally filtered at 10 Hz for display in figures. Oocytes were clamped at −60 mV, unless otherwise indicated, and continuously perfused with a bath solution containing (in mM): 140 NaCl, 1.8 BaCl2, and 10 Hepes. The pH was adjusted to 7.5 with NaOH, HCl, or KOH, as appropriate. For current–voltage relationships where K^+ replaced Na^+, KCl replaced NaCl in the above bath solution. In most experiments, activating solution was applied to oocytes in between resting periods of at least 30 to 60 s. After retrieving current amplitude from pClamp, all data were analyzed in Prism v9 (GraphPad Software). Currents were normalized by dividing by the maximum current at that oocyte, giving “I/Imax” in most concentration–response graphs. For graphs in figures and for calculating half-maximal effective (or inhibitory) concentration (EC50 or IC50) values, variable slope nonlinear regression was used in Prism v9, with the equation Y = Bottom + (Top-Bottom)/ […] 10^∧((LogEC50-X)∗HillSlope)), and maximum was constrained to one and minimum to zero. Curves in figures are fit to the mean data points. EC50 and IC50 values reported in text and used in statistical comparisons are means from curve fits to data on individual oocytes.
# [2] = tested on: DiaaNaC G6′S; test: Two-electrode voltage clamp, DiaaNaC G6′S mutant in oocytes; format: cell-based, Novocrania anomala
# Excerpt: (§2) The DiaaNaC full-length coding sequence was amplified by PCR from N. anomala cDNA and subcloned via SalI and BamHI sites into a pSP64 (polyA) vector (P1241, Promega) modified to contain the X. laevis globin 5′ and 3′ UTRs and a C-terminal Myc-tag linked to the final DiaaNaC residue via Gly-Ser linker (the BamHI site) (see ([20]) for full vector sequence). The cDNA sequence was deposited in NCBI GenBank accession number PP942623. Recombinant PCR with Phusion High-Fidelity DNA polymerase (F-549L, Thermo Fisher Scientific) was used to perform site-directed mutagenesis, as described previously ([45]). […] EcoRI (FD0274, Thermo Fisher Scientific) was used to linearize the cDNAs via a site shortly after the poly(A) sequence, and the mMESSAGE mMACHINE SP6 Transcription Kit (AM1340, Thermo Fisher Scientific) was used to synthesize cRNA.
# as §1
# (§3) Whole cell currents were recorded from oocytes by two-electrode voltage clamp using an OC-725D amplifier (Warner Instruments) controlled via an Axon Digitata 1550B interface and pClamp v11 (Molecular Devices), acquired at 1 kHz, and filtered at 200 Hz. Currents were analyzed in pClamp v10.7 software (Molecular Devices) and additionally filtered at 10 Hz for display in figures. […] After retrieving current amplitude from pClamp, all data were analyzed in Prism v9 (GraphPad Software). […]
# [3] = tested on: DiaaNaC L70S; test: Two-electrode voltage clamp, DiaaNaC L70S mutant in oocytes; format: cell-based, Novocrania anomala; conditions: 0 mV
# Excerpt: The DiaaNaC full-length coding sequence was amplified by PCR from N. anomala cDNA and subcloned via SalI and BamHI sites into a pSP64 (polyA) vector (P1241, Promega) modified to contain the X. laevis globin 5′ and 3′ UTRs and a C-terminal Myc-tag linked to the final DiaaNaC residue via Gly-Ser linker (the BamHI site) (see ([20]) for full vector sequence). The cDNA sequence was deposited in NCBI GenBank accession number PP942623. Recombinant PCR with Phusion High-Fidelity DNA polymerase (F-549L, Thermo Fisher Scientific) was used to perform site-directed mutagenesis, as described previously ([45]). […]
# Before electrophysiological recordings or surface expression determination, the oocytes were cultured for 3 days at 18 °C in 50% Leibowitz medium (L1518, Merck), supplemented with 0.25 mg/ml gentamicin, 1 mM L-glutamine, and 15 mM Hepes (pH 7.6). […] The intensity of the expression signal was quantified by tracing a perpendicular line across the oocyte membrane and measuring the gray values with ImageJ software ([48]).
# Whole cell currents were recorded from oocytes by two-electrode voltage clamp using an OC-725D amplifier (Warner Instruments) controlled via an Axon Digitata 1550B interface and pClamp v11 (Molecular Devices), acquired at 1 kHz, and filtered at 200 Hz. Currents were analyzed in pClamp v10.7 software (Molecular Devices) and additionally filtered at 10 Hz for display in figures. […]
# [4] = tested on: DiaaNaC E82A; test: Two-electrode voltage clamp, DiaaNaC E82A mutant in oocytes; format: cell-based, Novocrania anomala
# Excerpt: as §2, §1, §3
# [5] = tested on: DiaaNaC E358A; test: Two-electrode voltage clamp, DiaaNaC E358A mutant in oocytes; format: cell-based, Novocrania anomala
# Excerpt: as §2, §1, §3
compound,measurement,setting,value
"N=C(N)c1ccc(-c2cc3ccc(C(=N)N)cc3[nH]2)cc1 [DAPI, 4′,6-diamidino-2-phenylindole]",inward currents in absence of extracellular Na+,[1]; −60 mV,"tiny, if any"
"Cc1nc(N=C(N)N)nc2ccccc12 [GMQ, 2-(4-methylquinazolin-2-yl)guanidine]",activation of DiaaNaC (agonist activity),[1]; −60 mV,none of these compounds activated
"C[C@H](CCC(=O)O)[C@H]1CC[C@H]2[C@@H]3[C@@H](O)C[C@@H]4C[C@H](O)CC[C@]4(C)[C@H]3CC[C@]12C [Ursodeoxycholic acid, ursodeoxycholic acid]",current activated,"[1]; UDCA 2 mM, −60 mV, n = 7",73.1 ± 10 nA
NC(N)=NCCCCN=C(N)N [arcaine],activation of DiaaNaC (agonist activity),[1]; −60 mV,neither activated; also recorded: none of these compounds activated
N=C(N)c1ccc(/N=N/Nc2ccc(C(=N)N)cc2)cc1 [diminazene],diminazene potency compared to WT,[2]; 0 mV,significantly reduced
same,diminazene agonist potency compared to WT,[2]; −60 mV,decrease in agonist potency
same,channel block by diminazene,"[2]; −60 mV, even at 3 mM diminazene",block was not evident
same,diminazene-gated currents,[3],abolished
same,diminazene potency compared to WT,[4]; 0 mV,significantly reduced
same,diminazene agonist potency compared to WT,[4]; −60 mV,decrease in agonist potency
same,channel block by diminazene,"[4]; −60 mV, 1 and 3 mM diminazene",noticeable block develops
same,diminazene potency compared to WT,[5]; 0 mV,significantly reduced
same,diminazene agonist potency compared to WT,[5]; −60 mV,decrease in agonist potency
same,diminazene concentration at which block occurs,[5]; −60 mV,3 mM
same,inward currents in absence of extracellular Na+,[1]; −60 mV,"tiny, if any"
same,concentration that activates DiaaNaC,[1]; WT,≥ 300 µM
same,concentration that blocks DiaaNaC,[1]; WT,≥ 1 mM
same,effect on constitutive current,"[1]; diminazene 1 mM, absence of Ca2+",without inhibiting the constitutive current
same,inward currents activated,"[1]; diminazene 1 mM, absence of Ca2+, −60 mV, n = 7",1.0 ± 0.2 μA
same,EC50,"[1]; holding potential 0 mV, WT, read-out: diminazene EC50 for activation",409 ± 71 µM
same,EC50,"[1]; −60 mV, absence of Ca2+, WT, read-out: EC50 for activation of DiaaNaC",287 µM
same,inhibition at 1000 µM,"[1]; −100 mV, 1 mM diminazene, read-out: block of the agonist-gated current",~100%
N=C(N)c1ccc(OCCCCCOc2ccc(C(=N)N)cc2)cc1 [pentamidine],reversal potential (Erev) of pentamidine-gated current,"[1]; 150 μM pentamidine, extracellular NaCl",53.5 ± 5.0 mV
same,reversal potential (Erev) of pentamidine-gated current,"[1]; 450 μM pentamidine, extracellular NaCl",57.6 ± 3.4 mV
same,pentamidine EC50 in the presence of amiloride,[1]; 600 μM amiloride,not significantly altered
same,EC50,"[1]; EC50 for activation of DiaaNaC, −60 mV, absence of Ca2+, WT",592 ± 30.7 µM
same,reversal potential (Erev) of pentamidine-gated current,"[1]; K+ the only monovalent cation in extracellular solution, pentamidine 450 μM, estimated",−12.2 ± 4.6 mV
same,EC50,"[1]; pentamidine EC50, +10 mV, n = 4",959 ± 80.7 µM
same,EC50,"[1]; pentamidine EC50, +80 mV, n = 4",1030 ± 101 µM
same,EC50,"[1]; pentamidine EC50, −100 mV",471 ± 38.4 µM
same,EC50,"[1]; pentamidine EC50 with Ca2+, 1.8 mM Ca2+, n = 6",1000 ± 100 µM
same,block of the agonist-gated current,"[1]; −100 mV, 1 mM pentamidine",no such block
NCCCCNCCCN [spermidine],activation of DiaaNaC (agonist activity),[1]; −60 mV,neither activated
NCCCNCCCCNCCCN [spermine],activation of DiaaNaC (agonist activity),[1]; −60 mV,neither activated; also recorded: none of these compounds activated

# — publication PMC11750451, “Diarylamidine activation of a brachiopod DEG/ENaC/ASIC channel” (The Journal of Biological Chemistry, 2024)
